Test results taken from patent US9657057B2, “Dipeptide and tripeptide epoxy ketone protease inhibitors” (Onyx Therapeutics, Inc., priority 2013, dated 2017).
Converted amounts (≈) assume the structure as drawn. “And” between values parts separate entries of the source, which are not always exact repeats. Equal entries are not always repeated.

How the values were obtained:
[1] = biological target: i20S (20S immunoproteasome) (Homo sapiens, UniProt P20618+P28062); assay: 20S proteasome assay, chymotrypsin-like activity (LLVY), i20S; format: biochemical; conditions: LLVY i20S Hu 1 h CONT: IC50 (nM), succinyl-Leu-Leu-Val-Tyr-AMC
Text: (§1) Assay buffer consisted of TE buffer [20 mmol/L Tris (pH 8.0), 0.5 mmol/L EDTA] with (20S) or without (cell lysate) 0.03% SDS. Reactions were initiated by enzyme or lysate addition and monitored for AMC product formation at 27jC with a plate-based spectofluorometer (Tecan).

LMP7 = biological target: T1, LMP7 (Homo sapiens, UniProt P20618+P28062); assay: ProCISE proteasome subunit assay, LMP7; format: biochemical; conditions: MOLT4 lysate Hu 1 h
T1 construct: endogenous in cells; host or cells: MOLT-4
Description: (§2) This assay was used to assess the inhibitory activity against each of LMP2, LMP7, MECL1, β1, β2, and β5. Briefly, test compounds were serially diluted in DMSO at 100× concentration, then diluted to 10× in aqueous hypotonic lysis buffer. Lysate from the human acute lymphoblastic leukemia cell line, MOLT-4, was treated for 1 hour at 25° C. with compound at a final 1× concentration. […] Following this, lysate was denatured in guanidine hydrochloride, and subunits bound to probe were isolated with streptavidin-conjugated sepharose beads. Individual subunits were probed with subunit-specific primary antibodies, followed by HRP-conjugated secondary antibodies. A chemiluminescent substrate was used to generate signal associated with HRP binding, which was detected on a plate reader. Luminescent signal was normalized to protein content, then, percent activity calculated relative to DMSO-treated controls to generate IC50 curves.

[2] = biological target: c20S (constitutive 20S proteasome) (Homo sapiens, UniProt P20618+P28074); assay: 20S proteasome assay, chymotrypsin-like activity (LLVY), c20S; format: biochemical; conditions: LLVY c20S Hu 1 h CONT: IC50 (nM), succinyl-Leu-Leu-Val-Tyr-AMC
Text: as §1

β5 = biological target: T2, β5 (Homo sapiens, UniProt P20618+P28074); assay: ProCISE proteasome subunit assay, β5; format: biochemical; conditions: MOLT4 lysate Hu 1 h
T2 construct: endogenous in cells; host or cells: MOLT-4
Description: as §2

Solubility pH 7 = format: physicochemical; conditions: pH 7, aqueous buffer

| Structure (SMILES) | IC50 [1] [nM] | IC50 (LMP7) [nM] | IC50 [2] | IC50 (β5) [nM] | solubility (Solubility pH 7) [µg/mL] |
| --- | --- | --- | --- | --- | --- |
| COc1ccc(C[C@H](NC(=O)[C@H](C)NC(=O)CO)C(=O)N[C@@H](Cc2ccccc2)C(=O)[C@@]2(C)CO2)cc1 [Compound C-2008] | 558 |  | 1590 nM |  | 2330 (≈ 4560 µM) |
| CCOCC(=O)N[C@@H](C)C(=O)N[C@@H](Cc1ccc(OC)cc1)C(=O)N[C@@H](CC1CCCC1)C(=O)[C@@]1(C)CO1 [Compound C-2020, (S)—N—((S)-3-cyclopentyl-1-((R)-2-methyloxiran-2-yl)-1-oxopropan-2-yl)-2-((S)-2-(2-ethoxyacetamido)propanamido)-3-(4-methoxyphenyl)propanamide] | 560 |  | 797 nM |  | 59.1 (≈ 111 µM) |
| COc1ccc(C[C@H](NC(=O)[C@@H](C)NC(=O)c2oncc2C)C(=O)N[C@@H](CC2CCCC2)C(=O)[C@@]2(C)CO2)cc1 [Compound C-2024, N—((R)-1-(((S)-1-(((S)-3-cyclopentyl-1-((R)-2-methyloxiran-2-yl)-1-oxopropan-2-yl)amino)-3-(4-methoxyphenyl)-1-oxopropan-2-yl)amino)-1-oxopropan-2-yl)-4-methylisoxazole-5-carboxamide] | 2270 |  | 6030 nM |  | 44.1 (≈ 79.5 µM) |
| COc1ccc(C[C@H](NC(=O)[C@H](C)NC(=O)c2cnc(C)s2)C(=O)N[C@@H](CC2CCCC2)C(=O)[C@@]2(C)CO2)cc1 [Compound C-2025, N—((S)-1-(((S)-1-(((S)-3-cyclopentyl-1-((R)-2-methyloxiran-2-yl)-1-oxopropan-2-yl)amino)-3-(4-methoxyphenyl)-1-oxopropan-2-yl)amino)-1-oxopropan-2-yl)-2-methylthiazole-5-carboxamide] | 569 |  | 289 nM |  | 144 (≈ 253 µM) |
| COc1ccc(C[C@H](NC(=O)[C@@H](C)NC(=O)c2nc3ccccc3[nH]2)C(=O)N[C@@H](CC2CCCC2)C(=O)[C@@]2(C)CO2)cc1 [Compound C-2029, N—((R)-1-(((S)-1-(((S)-3-cyclopentyl-1-((R)-2-methyloxiran-2-yl)-1-oxopropan-2-yl)amino)-3-(4-methoxyphenyl)-1-oxopropan-2-yl)amino)-1-oxopropan-2-yl)-1H-benzo[d]imidazole-2-carboxamide] | 2580 |  | 3400 nM |  | 1.7 (≈ 2.88 µM) |
| COc1ccc(C[C@H](NC(=O)[C@@H](C)NC(=O)C2=Cc3ccccc3C2)C(=O)N[C@@H](CC2CCCC2)C(=O)[C@@]2(C)CO2)cc1 [Compound C-2036, N—((R)-1-(((S)-1-(((S)-3-cyclopentyl-1-((R)-2-methyloxiran-2-yl)-1-oxopropan-2-yl)amino)-3-(4-methoxyphenyl)-1-oxopropan-2-yl)amino)-1-oxopropan-2-yl)-1H-indene-2-carboxamide] |  | 130 | 5140 nM and 2710 nM | 4860 | 2.1 (≈ 3.57 µM) |
| COc1ccc(C[C@H](NC(=O)CNC(=O)C2=C(C)c3ccccc3C2)C(=O)N[C@@H](CC2CCCC2)C(=O)[C@@]2(C)CO2)cc1 [Compound C-2039, N-(2-(((S)-1-(((S)-3-cyclopentyl-1-((R)-2-methyloxiran-2-yl)-1-oxopropan-2-yl)amino)-3-(4-methoxyphenyl)-1-oxopropan-2-yl)amino)-2-oxoethyl)-3-methyl-1H-indene-2-carboxamide] | 2520 |  | 3950 nM |  | 1.7 (≈ 2.89 µM) |
| COc1ccc(C[C@H](NC(=O)[C@@H](C)NC(=O)c2ccno2)C(=O)N[C@@H](CC2CCCC2)C(=O)[C@@]2(C)CO2)cc1 [Compound C-2041, N—((R)-1-(((S)-1-(((S)-3-cyclopentyl-1-((R)-2-methyloxiran-2-yl)-1-oxopropan-2-yl)amino)-3-(4-methoxyphenyl)-1-oxopropan-2-yl)amino)-1-oxopropan-2-yl)isoxazole-5-carboxamide] | 1400 |  | 9800 nM |  | 65.9 (≈ 122 µM) |
| COc1ccc(C[C@H](NC(=O)[C@H](CN2CCOCC2)NC(=O)c2cc(C)no2)C(=O)N[C@@H](CC2CCCC2)C(=O)[C@@]2(C)CO2)cc1 [Compound C-2044, N—((S)-1-(((S)-1-(((S)-3-cyclopentyl-1-((R)-2-methyloxiran-2-yl)-1-oxopropan-2-yl)amino)-3-(4-methoxyphenyl)-1-oxopropan-2-yl)amino)-3-morpholino-1-oxopropan-2-yl)-3-methylisoxazole-5-carboxamide] | 1600 |  | 286 nM |  | 130 (≈ 204 µM) |
| COc1ccc(C[C@H](NC(=O)[C@@H](C)NC(=O)[C@H]2CCc3[nH]ncc3C2)C(=O)N[C@@H](CC2CCCC2)C(=O)[C@@]2(C)CO2)cc1 [Compound C-2065, (S)—N—((R)-1-(((S)-1-(((S)-3-cyclopentyl-1-((R)-2-methyloxiran-2-yl)-1-oxopropan-2-yl)amino)-3-(4-methoxyphenyl)-1-oxopropan-2-yl)amino)-1-oxopropan-2-yl)-4,5,6,7-tetrahydro-1H-indazole-5-carboxamide] |  | 157 |  | 6630 | 121 (≈ 204 µM) |
| COc1ccc(C[C@H](NC(=O)[C@@H]2CC(=O)N2)C(=O)N[C@@H](Cc2ccccc2)C(=O)[C@@]2(C)CO2)cc1 [Compound C-3002, (S)—N—((S)-3-(4-methoxyphenyl)-1-(((S)-1-((R)-2-methyloxiran-2-yl)-1-oxo-3-phenylpropan-2-yl)amino)-1-oxopropan-2-yl)-4-oxoazetidine-2-carboxamide] |  | 934 |  | 1930 | 1460 (≈ 3050 µM) |
| COc1ccc(C[C@H](NC(=O)[C@H]2CC(=O)N2)C(=O)N[C@@H](Cc2ccccc2)C(=O)[C@@]2(C)CO2)cc1 [Compound C-3003, (R)—N—((S)-3-(4-methoxyphenyl)-1-(((S)-1-((R)-2-methyloxiran-2-yl)-1-oxo-3-phenylpropan-2-yl)amino)-1-oxopropan-2-yl)-4-oxoazetidine-2-carboxamide] |  | 513 |  | 1220 | 1200 (≈ 2500 µM) |
| COc1ccc(C[C@H](NC(=O)[C@]2(C)CCC(=O)N2)C(=O)N[C@@H](Cc2ccccc2)C(=O)[C@@]2(C)CO2)cc1 [Compound C-3011, (S)—N—((S)-3-(4-methoxyphenyl)-1-(((S)-1-((R)-2-methyloxiran-2-yl)-1-oxo-3-phenylpropan-2-yl)amino)-1-oxopropan-2-yl)-2-methyl-5-oxopyrrolidine-2-carboxamide] | 4550 |  | 3320 nM |  | 1230 (≈ 2420 µM) |

Now from value to compound:

| IC50 [1] [nM] | IC50 (LMP7) [nM] | IC50 [2] | IC50 (β5) [nM] | solubility (Solubility pH 7) [µg/mL] | Structure (SMILES) |
| --- | --- | --- | --- | --- | --- |
| 6.1 | 34.4 | 29 nM | 180 |  | COc1ccc(C[C@H](NC(=O)[C@H](C)NC(=O)C(C)(F)F)C(=O)N[C@@H](Cc2ccccc2)C(=O)[C@@]2(C)CO2)cc1 [Compound C-2006] |
| 414 |  | 1050 nM |  | 300 (≈ 587 µM) | COC(=O)N[C@H](C)C(=O)N[C@@H](Cc1ccc(OC)cc1)C(=O)N[C@@H](Cc1ccccc1)C(=O)[C@@]1(C)CO1 [Compound C-2010, Methyl ((R)-1-(((S)-3-(4-methoxyphenyl)-1-(((S)-1-((R)-2-methyloxiran-2-yl)-1-oxo-3-phenylpropan-2-yl)amino)-1-oxopropan-2-yl)amino)-1-oxopropan-2-yl)carbamate] |
| 13.5 | 97.1 | 68.6 nM | 342 |  | COc1ccc(C[C@H](NC(=O)[C@H](C)NC(=O)C(F)(F)F)C(=O)N[C@@H](Cc2ccccc2)C(=O)[C@@]2(C)CO2)cc1 [Compound C-2011, (S)-3-(4-Methoxyphenyl)-N—((S)-1-((R)-2-methyloxiran-2-yl)-1-oxo-3-phenylpropan-2-yl)-2-((S)-2-(2,2,2-trifluoroacetamido)propanamido)propanamide] |
| 86.9 |  | 262 nM |  | 3830 (≈ 7280 µM) | COc1ccc(C[C@H](NC(=O)[C@H](C)NC(=O)CCO)C(=O)N[C@@H](Cc2ccccc2)C(=O)[C@@]2(C)CO2)cc1 [Compound C-2012, (S)-2-((S)-2-(3-hydroxypropanamido)propanamido)-3-(4-methoxyphenyl)-N—((S)-1-((R)-2-methyloxiran-2-yl)-1-oxo-3-phenylpropan-2-yl)propanamide] |
| 332 |  | 579 nM |  | 316 (≈ 594 µM) | COCCC(=O)N[C@@H](C)C(=O)N[C@@H](Cc1ccc(OC)cc1)C(=O)N[C@@H](CC1CCCC1)C(=O)[C@@]1(C)CO1 [Compound C-2019, (S)—N—((S)-3-cyclopentyl-1-((R)-2-methyloxiran-2-yl)-1-oxopropan-2-yl)-3-(4-methoxyphenyl)-2-((S)-2-(3-methoxypropanamido)propanamido)propanamide] |
| 5.2 |  | 7.9 nM |  | 10.7 (≈ 17 µM) | COc1ccc(C[C@H](NC(=O)[C@@H](NC(=O)OCc2ccccc2)C2(O)CC2)C(=O)N[C@@H](Cc2ccccc2)C(=O)[C@@]2(C)CO2)cc1 [Compound C-2046, Benzyl ((S)-1-(1-hydroxycyclopropyl)-2-(((S)-3-(4-methoxyphenyl)-1-(((S)-1-((R)-2-methyloxiran-2-yl)-1-oxo-3-phenylpropan-2-yl)amino)-1-oxopropan-2-yl)amino)-2-oxoethyl)carbamate] |
